The results in this text go back to the supplement of paper PMC10307832.

Common to all, as to experiment: relative viability (nuclei count vs DMSO), 5 days (fraction); higher = more cells survive
Compound in experiment [1]: CCOC(=O)CCNc1cc(N2CCc3ccccc3CC2)nc(-c2ccccn2)n1 [GSK-J4] + COc1cccc2cc(-c3nc([C@H]4CC[C@H](C(=O)O)CC4)n4ncnc(N)c34)[nH]c12 [OSI-027] (partner 0.5 µM)
In short, it runs like this: (§1)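 Lung cancer cell lines in 1536-well plates got either a single drug or a fixed anchor-drug dose together with five library-drug doses (not always all listed) in √10 steps, by pin tool, on the day after seeding. Nuclei were counted after 5 days, and relative viability is the treated-to-vehicle ratio of nuclei counts. Values are medians of duplicate plates.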

Compound in experiment [2]: CCOC(=O)CCNc1cc(N2CCc3ccccc3CC2)nc(-c2ccccn2)n1 [GSK-J4] + CC(C)C[C@H](NC(=O)[C@H](Cc1ccccc1)NC(=O)c1cnccn1)B(O)O [Bortezomib] (partner 0.002 µM)
In short, it runs like this: as §1

Compound in experiment [3]: CN1CCC(CC1)OC2=CC(=C(C=C2)NC3=NC=C4C(=N3)N(C(=O)N4C)C5CCCC5)OC [AZ3146] + COc1cc2c(Oc3ccc(NC(=O)C4(C(=O)Nc5ccc(F)cc5)CC4)cc3F)ccnc2cc1OCCCN1CCOCC1 [Foretinib] (partner 0.25 µM)
In a few lines:
as §1

Compound in experiment [4]: CCOC(=O)CCNc1cc(N2CCc3ccccc3CC2)nc(-c2ccccn2)n1 [GSK-J4] + N=C(N)NC(=N)NCCc1ccccc1 [Phenformin] (partner 250 µM)
In a few lines:
as §1

With UMC-11, the relative viability stood at 0.474 in experiment [1] (first compound 0.5 µM); 0.362 in experiment [1] (first compound 5 µM); 0.423 in experiment [1] (first compound 15.81 µM); 0.34 in experiment [1] (first compound 50 µM); 0.774 in experiment [2] (first compound 0.5 µM); 0.263 in experiment [2] (first compound 1.581 µM). The relative viability turned out to be 0.434 in experiment [2] (first compound 5 µM); 0.759 in experiment [2] (first compound 15.81 µM); 0.561 in experiment [2] (first compound 50 µM); 0.959 in experiment [3] (first compound 0.08 µM); 1.04 in experiment [3] (first compound 0.253 µM); 1.11 in experiment [3] (first compound 0.8 µM). Further, the relative viability stood at 0.813 in experiment [3] (first compound 2.53 µM); 0.261 in experiment [3] (first compound 8 µM); 0.276 in experiment [4] (first compound 0.5 µM); 0.241 in experiment [4] (first compound 5 µM); 0.306 in experiment [4] (first compound 15.81 µM); 0.294 in experiment [4] (first compound 50 µM).
